Experimental findings from PubChem BioAssay AID292 (DTP/NCI, 2004) are described below.

Molecules are shown by their SMILES. “And” between values parts separate entries of the source, which are not always exact repeats. Equal entries are not always repeated. Inconclusive results and toxic doses are left out.

The assay has as its system B6C3F1 mice, ip Sarcoma M5076, median survival T/C. In words: NCI In Vivo Anticancer Drug Screen. Data for tumor model Sarcoma M5076 (intraperitoneal) in B6C3F1 mice. Particulars: endpoint: median survival time, schedule: Q04DX004 (ip), higher = longer survival. The gist of the method:
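Antitumour effect is judged in tumour-bearing mice by comparing survival after compound dosing against vehicle-only animals, reported as T/C.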

The mark [1] stands for this setting: dose: 30.0 mg/kg/injection, vehicle: saline.
Where [2] appears, read: dose: 50.0 mg/kg/injection, vehicle: saline with Tween-80.
Setting [3] is: dose: 100.0 mg/kg/injection, vehicle: saline with Tween-80.
The mark [4] stands for this setting: dose: 200.0 mg/kg/injection, vehicle: saline with Tween-80.
[5] abbreviates: dose: 400.0 mg/kg/injection, vehicle: saline with Tween-80.
Setting [6] is: dose: 800.0 mg/kg/injection, vehicle: saline with Tween-80.
Setting [7] is: dose: 25.0 mg/kg/injection, vehicle: saline with Tween-80.
The mark [8] stands for this setting: dose: 25.0 mg/kg/injection, vehicle: Klucel (hydroxypropylcellulose) (HPC).
The mark [9] stands for this setting: dose: 50.0 mg/kg/injection, vehicle: Klucel (hydroxypropylcellulose) (HPC).
Setting [10] is: dose: 100.0 mg/kg/injection, vehicle: Klucel (hydroxypropylcellulose) (HPC).
The mark [11] stands for this setting: dose: 200.0 mg/kg/injection, vehicle: Klucel (hydroxypropylcellulose) (HPC).
Setting [12] is: dose: 400.0 mg/kg/injection, vehicle: Klucel (hydroxypropylcellulose) (HPC).

For `Cc1c(O)c2ccccc2c2c1sc(NCCCN(CCO)CCO)[n+]2C`, the T/C is 93 % of control (dose: 7.5 mg/kg/injection, vehicle: saline); 98 % of control (dose: 15.0 mg/kg/injection, vehicle: saline); 94 % of control under setting [1].
For `O=NNc1ccccn1`, the T/C (dose: 3.13 mg/kg/injection, vehicle: saline) was 109 % of control; the T/C (dose: 6.25 mg/kg/injection, vehicle: saline) was 117 % of control; the T/C (dose: 18.0 mg/kg/injection, vehicle: saline) is 172 % of control; the T/C (dose: 25.0 mg/kg/injection, vehicle: saline) is 160 % of control; the T/C under setting [1] was 156 % of control; the T/C (dose: 50.0 mg/kg/injection, vehicle: saline) was 184 % of control.
On to `Oc1ccc(/C=N/N=C/c2ccc(O)c(O)c2)cc1O`, for which the T/C reads like this: under setting [2], 98 % of control; under setting [3], 95 % of control; under setting [4], 95 % of control; under setting [5], 93 % of control; under setting [6], 107 % of control.
With `O=c1cc(CCl)[nH]nc1CCl`, the T/C reads like this: (dose: 3.0 mg/kg/injection, vehicle: saline with Tween-80) 111 % of control; (dose: 6.0 mg/kg/injection, vehicle: saline with Tween-80) 110 % of control; (dose: 12.0 mg/kg/injection, vehicle: saline with Tween-80) 112 % of control; (dose: 24.0 mg/kg/injection, vehicle: saline with Tween-80) 120 % of control; (dose: 48.0 mg/kg/injection, vehicle: saline with Tween-80) 114 % of control.
Consider `CCOC(=O)/N=[N+](\[O-])c1ccccc1`, for which the T/C (dose: 3.13 mg/kg/injection, vehicle: saline with Tween-80) was 105 % of control; the T/C (dose: 6.25 mg/kg/injection, vehicle: saline with Tween-80) is 97 % of control; the T/C (dose: 12.5 mg/kg/injection, vehicle: saline with Tween-80) was 104 % of control; the T/C under setting [7] was 97 % of control; the T/C under setting [2] is 101 % of control.
Consider `CO[C@@]12[C@H](COC(N)=O)C3=C(C(=O)C(C)=C(N)C3=O)N1C[C@@H]1N[C@@H]12`, for which the T/C is 106 % of control (dose: 0.25 mg/kg/injection, vehicle: saline); 120 % of control and 121 % of control (dose: 0.5 mg/kg/injection, vehicle: saline).
On to `NC(=O)c1cc(Cl)nc2nc(Cl)nc(N)c12`, for which the T/C is 100 % of control under setting [7]; 97 % of control under setting [2]; 99 % of control under setting [3]; 96 % of control under setting [4]; 93 % of control under setting [5].
For the molecule `CN(C)c1ccc2c(SCC(=O)OCC(=O)[C@@]3(O)CC[C@H]4[C@@H]5CCC6=CC(=O)C=C[C@]6(C)[C@H]5C(=O)C[C@@]43C)c3ccc(N(C)C)cc3nc2c1`, the T/C reads like this: under setting [8], 101 % of control; under setting [9], 103 % of control; under setting [10], 97 % of control; under setting [11], 90 % of control; under setting [12], 94 % of control.
As to `O=C1c2ccccc2C(=O)c2c(NCCOCCO)ccc(NCCOCCO)c21`, the T/C by setting is: under setting [7], 100 % of control; under setting [2], 103 % of control; under setting [3], 105 % of control; under setting [4], 102 % of control; under setting [5], 99 % of control.
For `O=Cc1ccc(O)c(O)c1`, the T/C is 100 % of control under setting [2], 96 % of control under setting [3], 104 % of control under setting [4] and 104 % of control under setting [5].
On to `COc1cc2c(oc(=O)c3cc(C)cc(OC)c32)c2c(C3OC(C)C(O)C(C)(O)C3O)ccc(O)c12` (stereo not given), for which the T/C by setting is: (dose: 3.12 mg/kg/injection, vehicle: DMSO) 106 % of control and 107 % of control; (dose: 6.25 mg/kg/injection, vehicle: DMSO) 101 % of control and 109 % of control; (dose: 12.5 mg/kg/injection, vehicle: DMSO) 101 % of control and 107 % of control; (dose: 25.0 mg/kg/injection, vehicle: DMSO) 109 % of control and 112 % of control; (dose: 50.0 mg/kg/injection, vehicle: DMSO) 103 % of control and 109 % of control.
With `O=C(N/N=C/c1ccco1)c1ccc(OCc2nc3ccccc3[nH]2)cc1`, the T/C is, setting by setting: under setting [7], 97 % of control; under setting [2], 95 % of control; under setting [3], 96 % of control; under setting [4], 90 % of control.
For `C=CCOc1cc2c(cc1C(C)c1ccc(OC)cc1)OCO2` (stereo not given), the T/C is, setting by setting: under setting [8], 98 % of control; under setting [9], 116 % of control; (dose: 75.0 mg/kg/injection, vehicle: Klucel (hydroxypropylcellulose) (HPC)) 113 % of control; under setting [10], 115 % of control; (dose: 144.0 mg/kg/injection, vehicle: Klucel (hydroxypropylcellulose) (HPC)) 118 % of control; (dose: 150.0 mg/kg/injection, vehicle: Klucel (hydroxypropylcellulose) (HPC)) 106 % of control. Moreover, the T/C is, setting by setting: under setting [11], 123 % of control; (dose: 240.0 mg/kg/injection, vehicle: Klucel (hydroxypropylcellulose) (HPC)) 108 % of control; (dose: 300.0 mg/kg/injection, vehicle: Klucel (hydroxypropylcellulose) (HPC)) 124 % of control; under setting [12], 108 % of control.
As for `COc1ccc2nc(C)cc(N/N=C/c3cccnc3)c2c1`, the T/C runs as follows: (dose: 12.5 mg/kg/injection, vehicle: Klucel (hydroxypropylcellulose) (HPC)) 104 % of control; under setting [8], 114 % of control; under setting [9], 116 % of control; under setting [10], 117 % of control.
Regarding `COc1ccc2c(c1)n([O-])c1ccccc1[n+]2=O`, the T/C under setting [7] was 115 % of control, the T/C under setting [2] is 117 % of control and the T/C under setting [3] is 121 % of control.
For the molecule `O=CC(CO)CC(C=O)n1cnc2c(=O)[nH]cnc21` (stereo not given), the T/C is 104 % of control (dose: 37.0 mg/kg/injection, vehicle: saline); 105 % of control (dose: 75.0 mg/kg/injection, vehicle: saline); 124 % of control (dose: 300.0 mg/kg/injection, vehicle: saline).
On to `O=C(Nc1ccccc1CCl)Nc1ccccc1CCl`, for which the T/C is, setting by setting: under setting [2], 107 % of control; under setting [3], 102 % of control and 110 % of control; under setting [4], 109 % of control and 114 % of control; under setting [6], 123 % of control.
`COC(C(=O)C(O)C(C)O)C1CC2C=C3C=C(OC4CC(OC5CC(O)C(OC)C(C)O5)C(OC(C)=O)C(C)O4)C(C)C(=O)C3=C(O)C2=C(O)C1OC1CC(OC2CC(OC3CC(C)(O)C(O)C(C)O3)C(O)C(C)O2)C(O)C(C)O1` (stereo not given): the T/C is 104 % of control (dose: 1.0 mg/kg/injection, vehicle: saline with Tween-80); 112 % of control (dose: 2.0 mg/kg/injection, vehicle: saline with Tween-80); 107 % of control and 112 % of control (dose: 4.0 mg/kg/injection, vehicle: saline with Tween-80); 104 % of control and 108 % of control (dose: 8.0 mg/kg/injection, vehicle: saline with Tween-80); 107 % of control and 111 % of control (dose: 16.0 mg/kg/injection, vehicle: saline with Tween-80); 117 % of control (dose: 32.0 mg/kg/injection, vehicle: saline with Tween-80). Also, the T/C (dose: 64.0 mg/kg/injection, vehicle: saline with Tween-80) was 115 % of control.
As for `Nc1ccccc1N`, the T/C reads like this: (dose: 12.0 mg/kg/injection, vehicle: Klucel (hydroxypropylcellulose) (HPC)) 99 % of control; under setting [8], 98 % of control; under setting [9], 110 % of control; under setting [10], 98 % of control; under setting [11], 103 % of control.
